Laboratory results as given in patent publication US9580726B2, “Tomato plants comprising transgenic event Bs2-X5” (priority 2013, dated 2017).
Structures can show the parent of a compound that is named as a salt. Where two headings read alike, the source gives them in different places.

Legend:
[1] = system: bacterial spot disease on tomato; conditions: cited from earlier work
[2] = system: Xanthomonas bacterial isolates; assay type: cell-based, Xanthomonas perforans; conditions: 200 μg/ml, 3 days
Protocol: The bacterial isolates were also tested for sensitivity to the bactericides, streptomycin and copper using established procedures. All strains were tested for growth on media with either streptomycin sulfate (200 μg/ml) or copper sulfate (pentahydrate) 200 μg/ml (0.8 mM)) after 3 days, [38].

[3] = Collier, zone III, Florida 47, 20 strains isolated (r19)
[4] = Collier, zone III, Grape, 18 strains isolated (r22)
[5] = Collier, zone III, Grape, 20 strains isolated (r21)
[6] = Collier, zone III, Large Fruit, 19 strains isolated (r23)
[7] = Collier, zone III, Roma, 20 strains isolated (r20)
[8] = Decatur, GA, zone V, Large Fruit, 19 strains isolated (r39)
[9] = Decatur, GA, zone V, Large Fruit, 20 strains isolated (r41)
[10] = Decatur, GA, zone V, Large Fruit, 20 strains isolated (r43)
[11] = Gadsden, zone V, Large Fruit, 19 strains isolated (r37)
[12] = Gadsden, zone V, Large Fruit, 20 strains isolated (r35)
[13] = Manatee, zone IV, Large Fruit, 20 strains isolated (r25)
[14] = Manatee, zone IV, Large Fruit, 20 strains isolated (r27)
[15] = Manatee, zone IV, Large Fruit, 20 strains isolated (r29)
[16] = Manatee, zone IV, Large Fruit, 20 strains isolated (r31)
[17] = Manatee, zone IV, Large Fruit, 20 strains isolated (r33)
[18] = Miami Dade, zone I, Large Fruit, 13 strains isolated (r13)
[19] = Miami Dade, zone I, Large Fruit, 15 strains isolated (r9)
[20] = Miami Dade, zone I, Large Fruit, 20 strains isolated (r11)
[21] = Miami Dade, zone I, Plum, 20 strains isolated (r15)
[22] = Palm Beach, zone II, Heirloom varieties, 14 strains isolated (r17)
[23] = Totals, 377 strains isolated (r45)

SMILES | Bactericide Resistance: number of resistant strains [2, 3] | Bactericide Resistance: number of resistant strains [2, 4] | Bactericide Resistance: number of resistant strains [2, 5] | Bactericide Resistance: number of resistant strains [2, 6] | Bactericide Resistance: number of resistant strains [2, 7] | Bactericide Resistance: number of resistant strains [2, 8] | Bactericide Resistance: number of resistant strains [2, 9] | Bactericide Resistance: number of resistant strains [2, 10] | Bactericide Resistance: number of resistant strains [2, 11] | Bactericide Resistance: number of resistant strains [2, 12] | Bactericide Resistance: number of resistant strains [2, 13] | Bactericide Resistance: number of resistant strains [2, 14] | Bactericide Resistance: number of resistant strains [2, 15] | Bactericide Resistance: number of resistant strains [2, 16] | Bactericide Resistance: number of resistant strains [2, 17] | Bactericide Resistance: number of resistant strains [2, 18] | Bactericide Resistance: number of resistant strains [2, 19] | Bactericide Resistance: number of resistant strains [2, 20] | Bactericide Resistance: number of resistant strains [2, 21] | Bactericide Resistance: number of resistant strains [2, 22] | further results
[Cu+2].[OH-].[OH-] [Copper hydroxide] |  |  |  |  |  |  |  |  |  |  |  |  |  |  |  |  |  |  |  |  | Significant difference between treatment and untreated control: Foliar Rating ([1]; 2008, TN, Ref [3]): No; Significant difference between treatment and untreated control: Marketable Yield ([1]; 2008, TN, Ref [3]): No; Significant difference between treatment and untreated control: AUDPC ([1]; 2009, OH, Ref [4]): No; Significant difference between treatment and untreated control: Marketable Yield ([1]; 2009, OH, Ref [4]): No; Significant difference between treatment and untreated control: Foliar Rating ([1]; 2009, OH, Ref [4], foliar symptoms lower on copper treated plots, fruit symptoms not): Yes^f; Significant difference between treatment and untreated control: AUDPC ([1]; 2010, FL, Ref [6]): Yes^h; Significant difference between treatment and untreated control: Foliar Rating ([1]; 2010, FL, Ref [6]): No^h; Significant difference between treatment and untreated control: Marketable Yield ([1]; 2010, FL, Ref [6]): No
O.O.O.O.O.O=S(=O)([O-])[O-].[Cu+2] [Cu, copper sulfate (pentahydrate)] | 20 | 14 | 20 | 19 | 20 | 19 | 20 | 20 | 19 | 20 | 20 | 20 | 20 | 20 | 20 | 13 | 15 | 20 | 20 | 14 | Bactericide Resistance: number of resistant strains [2, 23]: 377; Bactericide Resistance: number of resistant strains ([2]; Totals, 377 strains isolated (r45), listed as copper): all current field strains were found to be resistant
[H]/N=C(/N)N[C@H]1[C@H](O)[C@@H](O)[C@H](O[C@@H]2O[C@@H](C)[C@](O)(C=O)[C@H]2O[C@@H]2O[C@@H](CO)[C@H](O)[C@@H](O)[C@@H]2NC)[C@@H](N/C(N)=N\[H])[C@@H]1O [St, streptomycin sulfate] | 0 | 0 | 0 | 0 | 0 | 0 | 0 | 0 | 0 | 0 | 0 | 0 | 0 | 1 | 0 | 0 | 0 | 19 | 0 | 0 | Bactericide Resistance: number of resistant strains [2, 23]: 20; Bactericide Resistance: number of resistant strains ([2]; Totals, 377 strains isolated (r45), listed as streptomycin): streptomycin resistant strains were found in two of our survey collection areas
